Earlier results on 1 molecule are cited in patent US9775828B2, “Pharmaceutical composition with increased solubility by using saccharin” (University-Industry Foundation, Yonsei University, priority 2014, dated 2017).

For the data set the following is noted: when administered to the oral cavity and the nasal cavity.

With `CN(C)CCc1c[nH]c2ccc(C[C@H]3COC(=O)N3)cc12` [Zolmitriptan, (S)-4-{{3-[2-(dimethylaminoethyl)]-1H-indol-5-1}methyl}-2-oxazolidinone], the bioavailability result is recorded as “about 40%”.
